Here are results for eleven compounds from US20250009742A1 (priority 2021, published 2025).

The subject of one data set is intracellular HBV DNA. The data set is described as follows: Real-time PCR for intracellular HBV DNA in HepAD38 cells. Type of data set: cell-based. Particulars: 65 hours treatment.
The target in the next data set is Protein (Hepatitis B virus genotype D subtype ayw, UniProt P03146). Nature of the data set: Protein inhibition rate / EC50 (Table 1, no method described). Type of data set: biochemical.
The subject of another data set is HepAD38 cells. The data set is described as follows: Cell viability assay (EZ-Cytox), cytotoxicity. Type of data set: cell-based. Particulars: 65 hours. On the procedure: (§1) HepAD38 cells were cultured for 2 days in Dulbecco's Modified Eagle's medium (Welgene, LM001-05) supplemented with 10% FBS without tetracycline. […] After 65 hours of treatment, viability was measured using EZ-Cytox cell viability assay kit (Daeil Lab Service) according to the manufacturer's instructions. The absorbance was measured at 450 nm using a spectrophotometer (Spark, Tecan).

Data set [1] in a line: Cell viability assay (EZ-Cytox), cytotoxicity. It is filed as cell-based. The following applies: human, HepAD38 cells; for viability at 65 h, 100 µM: read-out: Cytotoxicity % Livability (@100 μM). The procedure:
as §1

The mark [2] stands for this setting: Hepatitis B virus, HePAD38, 65 h.

pEC50, pIC50: −log10 of the molar value. Read-outs that look alike come from different tables or passages of the source. Bounds are passed on as bounds.

Protein, sequence (P03146 whole entry): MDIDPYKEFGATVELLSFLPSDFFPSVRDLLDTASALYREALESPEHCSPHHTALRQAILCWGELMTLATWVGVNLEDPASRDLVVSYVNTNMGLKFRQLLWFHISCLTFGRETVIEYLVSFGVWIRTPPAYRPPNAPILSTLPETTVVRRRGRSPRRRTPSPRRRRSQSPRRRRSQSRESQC

In the case of “1-((4-bromo-1H-pyrazol-3-yl)methyl)-3-(3-chloro-4-fluorophenyl)-1-(4-methoxyphenyl)urea [Example 61]”, in the data set on intracellular HBV DNA (read-out: IC50), the pIC50 was 6.30. On Protein, this compound had a negative logarithm of the EC50 (pEC50) of 5.36. The “Protein % inhibition rate (@30 μM)” value at Protein (@30 μM) is given as 81.8%. In the data set on HepAD38 cells, it took 98.8 µM to reach half-maximal cytotoxicity (CC50) and the “Cytotoxicity % Livability (@100 μM)” value came to 40.8%.
With “3-(3-chloro-4-fluorophenyl)-1-((1-(hydroxymethyl)-5-(trifluoromethyl)-1H-pyrazol-3-yl)methyl)-1-(6-methoxypyridin-3-yl)urea [Example 79]”, the pIC50 in the data set with intracellular HBV DNA (read-out: IC50) is 7.72. Besides, in the data set with HepAD38 cells, the “Cytotoxicity % Livability (@100 μM)” value is given as 18.5%.
`COc1ncc(N(Cc2n[nH]c(C(F)F)c2Br)C(=O)Nc2ccc(F)c(Cl)c2)cn1` [Example 81, 1-((4-bromo-5-(difluoromethyl)-1H-pyrazol-3-yl)methyl)-3-(3-chloro-4-fluorophenyl)-1-(2-methoxypyrimidin-5-yl)urea] had a pIC50 in the data set on intracellular HBV DNA of 7.84. For the same compound, in the data set on HepAD38 cells, the cytotoxic concentration (CC50) was more than 100 µM and the “Cytotoxicity % Livability (@100 μM)” value is recorded as 76.0%.
In the data set with intracellular HBV DNA (setting [2]), `COc1ncc(N(Cc2n[nH]c(C(F)F)c2Br)C(=O)Nc2ccc(F)c(Cl)c2)cn1` [Example 98, 1-((4-bromo-5-(difluoromethyl)-1H-pyrazol-3-yl)methyl)-3-(3-chloro-4-fluorophenyl)-1-(2-methoxypyrimidin-5-yl)urea] showed a pIC50 of 7.74. In data set [1], the CC50 at 65 h was more than 66 µM. Moreover, the “Cytotoxicity % Livability (@100 μM)” value with HepAD38 cells worked out at 30.1%.
In the case of `O=C(Nc1ccc(F)c(Cl)c1)N(Cc1n[nH]c2c1CCC2)c1ccc(O)cc1` [Example 114, 3-(3-chloro-4-fluorophenyl)-1-(4-hydroxyphenyl)-1-((1,4,5,6-tetrahydrocyclopenta[c]pyrazol-3-yl)methyl)urea], the pIC50 in the data set with intracellular HBV DNA (setting [2]) was 7.85. For the same compound, at Protein, the pEC50 is 5.80 and 30 µM produced 74.6% inhibition. In data set [1], the midpoint of cytotoxicity, the CC50 at 65 h, lay at 54.5 µM and the viability at 65 h, 100 µM stood at 7.9%.
The compound `COc1ccc(N(Cc2n[nH]c3c2CCCC3)C(=O)Nc2ccc(F)c(Cl)c2)cc1OC` [Example 116, 3-(3-chloro-4-fluorophenyl)-1-(3,4-dimethoxyphenyl)-1-((4,5,6,7-tetrahydro-1H-indazol-3-yl)methyl)urea] had a pIC50 in the data set on intracellular HBV DNA (setting [2]) of less than 5.96. The inhibition at 30 µM on Protein amounted to 69.5%. Moreover, in data set [1], the CC50 at 65 h is more than 100 µM and the viability at 65 h, 100 µM was 104%.
Take `COc1cc(OC)cc(N(Cc2n[nH]c3c2CCCC3)C(=O)Nc2ccc(F)c(Cl)c2)c1` [Example 117, 3-(3-chloro-4-fluorophenyl)-1-(3,5-dimethoxyphenyl)-1-((4,5,6,7-tetrahydro-1H-indazol-3-yl)methyl)urea]: the pIC50 in the data set on intracellular HBV DNA (setting [2]) is less than 5.96. The compound further showed an inhibition at 30 µM against Protein of 7%. Also, in data set [1], the cytotoxic concentration (CC50) at 65 h is more than 33 µM and the viability at 65 h, 100 µM came out at 3.2%.
In the data set on intracellular HBV DNA (setting [2]), `O=C(O)c1ccc(N(Cc2n[nH]c3c2CCCC3)C(=O)Nc2ccc(F)c(Cl)c2)cc1` [Example 131, 4-(3-(3-chloro-4-fluorophenyl)-1-((4,5,6,7-tetrahydro-1H-indazol-3-yl)methyl)ureido)benzoic acid] had a pIC50 of less than 5.96. Moreover, at Protein, the pEC50 is 5.42 and the inhibition at 30 µM was 94.7%. For the same compound, in data set [1], the 50% cytotoxic concentration (CC50) at 65 h is more than 100 µM and the viability at 65 h, 100 µM came out at 100%.
As for `O=C(Nc1ccc(F)c(Cl)c1)N(Cc1n[nH]c2c1CCCC2)c1ccon1` [Example 132, 3-(3-chloro-4-fluorophenyl)-1-(isoxazol-3-yl)-1-((4,5,6,7-tetrahydro-1H-indazol-3-yl)methyl)urea], the negative-log IC50 (pIC50) in the data set with intracellular HBV DNA (setting [2]) was 7.26. For the same compound, at Protein, the pEC50 is 5.28 and the inhibition at 30 µM was found to be 86.9%. Further, in data set [1], the CC50 at 65 h is more than 100 µM and the viability at 65 h, 100 µM is 81.9%.
Turning to `O=C(Nc1ccc(F)c(Cl)c1)N(Cc1n[nH]c2c1CCCC2)c1nncs1` [Example 133, 3-(3-chloro-4-fluorophenyl)-1-((4,5,6,7-tetrahydro-1H-indazol-3-yl)methyl)-1-(1,3,4-thiadiazol-2-yl)urea], the negative-log IC50 (pIC50) in the data set with intracellular HBV DNA (setting [2]) is 6.96. The same compound returned an inhibition at 30 µM at Protein of 5%. Also, in data set [1], the midpoint of cytotoxicity, the CC50 at 65 h, lay at 74.2 µM and the viability at 65 h, 100 µM was 4.3%.
Turning to `O=C(Nc1ccc(F)c(Cl)c1)N(Cc1n[nH]c2c1CCC2)c1ccon1` [Example 134, 3-(3-chloro-4-fluorophenyl)-1-(isoxazol-3-yl)-1-((1,4,5,6-tetrahydrocyclopenta[c]pyrazol-3-yl)methyl)urea], the negative-log IC50 (pIC50) in the data set on intracellular HBV DNA (setting [2]) is 7.16. On Protein, this compound had a pEC50 of 5.46 and an inhibition at 30 µM of 84.5%. In data set [1], the midpoint of cytotoxicity, the CC50 at 65 h, lay at 70.3 µM and the viability at 65 h, 100 µM was determined as 6.5%.
